Source: patent EP1678287B1, “DISPENSER CONTAINING LIQUID BLEACHING COMPOSITION” (Reckitt Benckiser (UK) Limited, priority 2003, dated 2005)

Assay: Storage stability of MMAM in an aqueous hydrogen peroxide composition with the surfactant under test
Assay type: physicochemical
Settings: 2 weight % Dowanol PnB added to the compositions of Example 1
Experimental: In this example, a number of surfactants were tested for their ability to stabilise methyl morpholinium acetonitrile methylsulphate (MMAM) in the presence of hydrogen peroxide.
The surfactant under test was added to an aqueous composition containing 1 weight % H2O2 and 1.1 weight % MMAM (1.7 weight % Sokalan BM) The active amount of surfactant in the composition was 1 weight %. In a control sample, no surfactant was added.

## CCCCOCC(C)O (stereo not shown) [Dowanol PnB, n-butyl monoether of propylene glycol]
  effect of solvent on stability: did not have a significant effect on stability
